The values that follow come from ChEMBL document CHEMBL1201862, “PubChem BioAssay data set” (2004).

SMILES strings stand for the structures. Calls of active or inactive are those of the source.

Test [1] can be described thus: fluconazole-exposed Candida albicans growth modulators – fluorescence, retest, confirmation (AID 2467). Format: functional, cell-based.
Test [2] is described as follows: NIH-3T3 fibroblast cytotoxicity, dose response, cytotoxicity control, cell-based, fluorescence, Alamar Blue, secondary assay (AID 2327).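 Also: NIH-3T3 mouse fibroblasts cultured with fluconazole at 8 µg/mL.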 Format: functional. Background: Resazurin is reduced to fluorescent resorufin, in cell work by metabolically active cells.
Another test has as its system INS1. As to the kind of experiment: INS-1E survival protection against cytokine death – cell-based, luminescence, retest, dose response (AID 449756).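 Also: cell death triggered by IL-1 beta plus TNF-alpha plus IFN-gamma mixture; protective hits raise ATP signal compared with cytokine alone wells.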 Format: functional. The note with it: Rattus norvegicus.
Another test deals with Cytochrome P450 3A4 (Homo sapiens, UniProt P08684).
Cytochrome P450 3A4, sequence (P08684 whole entry): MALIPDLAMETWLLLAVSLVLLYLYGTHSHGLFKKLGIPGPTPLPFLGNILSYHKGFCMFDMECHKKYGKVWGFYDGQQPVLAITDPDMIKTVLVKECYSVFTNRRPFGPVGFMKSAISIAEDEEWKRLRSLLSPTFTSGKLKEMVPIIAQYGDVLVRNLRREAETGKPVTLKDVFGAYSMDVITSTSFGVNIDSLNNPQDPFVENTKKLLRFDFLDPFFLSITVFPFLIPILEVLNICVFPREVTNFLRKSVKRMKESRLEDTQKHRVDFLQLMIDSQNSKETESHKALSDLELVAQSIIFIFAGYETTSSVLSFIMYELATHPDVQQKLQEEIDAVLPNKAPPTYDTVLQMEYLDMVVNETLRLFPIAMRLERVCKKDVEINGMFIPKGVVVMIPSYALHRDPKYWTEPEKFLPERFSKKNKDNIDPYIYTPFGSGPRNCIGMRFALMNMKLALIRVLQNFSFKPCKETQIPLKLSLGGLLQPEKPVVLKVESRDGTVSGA
A further test deals with Cytochrome P450 2C19 (Homo sapiens, UniProt P33261). As to the kind of experiment: Cytochrome panel assay with activity outcomes. Panel member name: p450-cyp2c19 Compounds with AC50 equal or less than 10 uM are considered active. In kind it is functional. To be noted: read-out: AC50.
Cytochrome P450 2C19, sequence (P33261 whole entry): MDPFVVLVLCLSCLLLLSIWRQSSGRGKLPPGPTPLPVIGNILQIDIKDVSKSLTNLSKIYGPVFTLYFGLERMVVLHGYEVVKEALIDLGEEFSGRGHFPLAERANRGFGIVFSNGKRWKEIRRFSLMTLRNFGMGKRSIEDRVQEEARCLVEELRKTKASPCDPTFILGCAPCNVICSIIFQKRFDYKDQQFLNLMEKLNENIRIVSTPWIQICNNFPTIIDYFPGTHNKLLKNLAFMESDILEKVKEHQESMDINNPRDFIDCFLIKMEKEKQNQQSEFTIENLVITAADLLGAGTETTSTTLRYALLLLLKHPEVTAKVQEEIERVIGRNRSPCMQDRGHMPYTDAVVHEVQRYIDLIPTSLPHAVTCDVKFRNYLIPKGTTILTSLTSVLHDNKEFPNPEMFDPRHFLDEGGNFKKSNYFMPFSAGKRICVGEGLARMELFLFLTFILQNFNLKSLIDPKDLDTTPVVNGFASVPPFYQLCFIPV
For a further test, the system named is H9c2. Description: cells. Format: functional, cell-based. The note with it: Rattus norvegicus, H9c2, Myocardium.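 Also: confirmatory concentration-response retest of ultra-high-throughput screening hits for modulation of myocardial damage; cell death induced by hydrogen peroxide oxidative stress; compound pretreatment for 60 min then peroxide exposure for 2 h; potency is for protecting the cells against peroxide damage rather than for killing them.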
Test [3] is described as follows: viability of uninfected HEp-2 cells – cell-based, HTS, cytotoxicity control for RSV inhibitor project, dose response (AID 2410). Format: functional. To be noted: human respiratory syncytial virus.
Test [4] deals with FAD-linked sulfhydryl oxidase ALR (Homo sapiens, UniProt P55789). As to the kind of experiment: ALR-catalysed DTT oxidation blockers – biochemical, H2O2 detection, luminescence, cherry-pick, dose response (AID 493248).
FAD-linked sulfhydryl oxidase ALR, sequence (P55789 whole entry): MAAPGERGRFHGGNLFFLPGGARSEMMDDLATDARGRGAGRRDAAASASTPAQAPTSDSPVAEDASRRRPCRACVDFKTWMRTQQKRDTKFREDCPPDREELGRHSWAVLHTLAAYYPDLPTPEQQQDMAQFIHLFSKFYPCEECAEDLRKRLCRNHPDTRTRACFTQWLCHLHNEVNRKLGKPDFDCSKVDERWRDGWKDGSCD
A further test deals with Cytochrome P450 2D6 (Homo sapiens, UniProt P10635).
Cytochrome P450 2D6, sequence (P10635 whole entry): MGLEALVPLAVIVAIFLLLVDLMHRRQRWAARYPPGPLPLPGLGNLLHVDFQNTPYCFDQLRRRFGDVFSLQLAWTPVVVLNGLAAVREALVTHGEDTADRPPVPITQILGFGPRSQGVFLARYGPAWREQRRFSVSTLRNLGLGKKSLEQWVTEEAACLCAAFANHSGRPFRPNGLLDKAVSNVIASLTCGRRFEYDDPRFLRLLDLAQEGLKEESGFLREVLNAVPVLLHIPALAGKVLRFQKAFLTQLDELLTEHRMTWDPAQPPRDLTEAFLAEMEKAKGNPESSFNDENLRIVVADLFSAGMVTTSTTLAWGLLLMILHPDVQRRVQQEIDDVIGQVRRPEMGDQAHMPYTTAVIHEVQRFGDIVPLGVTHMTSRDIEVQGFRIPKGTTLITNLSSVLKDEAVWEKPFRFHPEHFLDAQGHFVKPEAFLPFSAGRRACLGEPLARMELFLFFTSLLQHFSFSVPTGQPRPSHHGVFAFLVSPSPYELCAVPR
The target of a further test is Cytochrome P450 2C9 (Homo sapiens, UniProt P11712).
Cytochrome P450 2C9, sequence (P11712 whole entry): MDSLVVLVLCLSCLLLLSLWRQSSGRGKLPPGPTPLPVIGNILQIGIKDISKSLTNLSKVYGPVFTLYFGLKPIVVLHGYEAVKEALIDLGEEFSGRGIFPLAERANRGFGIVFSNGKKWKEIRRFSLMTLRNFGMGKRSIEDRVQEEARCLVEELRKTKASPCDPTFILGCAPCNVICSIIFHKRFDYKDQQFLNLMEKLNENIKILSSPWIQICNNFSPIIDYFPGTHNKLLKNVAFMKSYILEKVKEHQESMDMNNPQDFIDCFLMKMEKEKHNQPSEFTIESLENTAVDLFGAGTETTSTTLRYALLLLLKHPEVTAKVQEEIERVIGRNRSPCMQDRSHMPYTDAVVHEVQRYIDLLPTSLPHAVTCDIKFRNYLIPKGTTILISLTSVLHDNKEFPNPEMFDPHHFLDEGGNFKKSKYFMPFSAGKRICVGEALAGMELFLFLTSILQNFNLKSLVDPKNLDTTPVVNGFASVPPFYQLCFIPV
For another test, the target named is T1, Cytochrome P450 1A2 (Homo sapiens, UniProt P05177).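 Also: PubChem cytochrome P450 panel assay, CYP1A2 panel member.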
T1 sequence (P05177 whole entry): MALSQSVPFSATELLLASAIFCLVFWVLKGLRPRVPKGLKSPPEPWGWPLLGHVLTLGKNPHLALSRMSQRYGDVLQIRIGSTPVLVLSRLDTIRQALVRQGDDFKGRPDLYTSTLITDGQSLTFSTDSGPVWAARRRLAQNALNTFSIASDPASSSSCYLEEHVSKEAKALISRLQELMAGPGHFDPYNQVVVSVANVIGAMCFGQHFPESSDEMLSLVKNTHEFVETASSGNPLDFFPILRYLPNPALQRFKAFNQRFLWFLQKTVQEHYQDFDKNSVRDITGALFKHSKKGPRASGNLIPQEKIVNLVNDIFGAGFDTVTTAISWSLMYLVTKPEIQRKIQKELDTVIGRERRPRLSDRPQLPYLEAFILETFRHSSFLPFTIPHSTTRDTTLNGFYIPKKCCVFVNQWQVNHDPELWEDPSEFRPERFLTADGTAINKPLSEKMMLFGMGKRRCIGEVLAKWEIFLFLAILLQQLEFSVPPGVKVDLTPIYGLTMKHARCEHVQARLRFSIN

Test [5] can be described thus: Trypanosoma cruzi growth suppression in host cells – NIH3T3 host cells, beta-gal luminescence, confirmation (AID 2044).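 Also: intracellular parasites grown in NIH/3T3 mouse fibroblasts as host cells; luminescent beta-galactosidase reporter signal from transgenic T. cruzi replicating inside host cells; inhibitors lower the luminescence signal.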 In kind it is functional, cell-based.
Test [6] is described as follows: NIH3T3 cell viability loss – ATP luminescence, mouse fibroblasts, counter-screen, dose response (AID 2010).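 Also: cells exposed to compound for about 90 hours before reading.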 Format: functional, cell-based. On the technique in general: A counterscreen serves to expose hits that act by an unwanted route or on another target.
For test [7], the target named is T2, Rac GTPase-activating protein 1 (Homo sapiens, UniProt Q9H0H5).
T2 sequence (Q9H0H5 whole entry): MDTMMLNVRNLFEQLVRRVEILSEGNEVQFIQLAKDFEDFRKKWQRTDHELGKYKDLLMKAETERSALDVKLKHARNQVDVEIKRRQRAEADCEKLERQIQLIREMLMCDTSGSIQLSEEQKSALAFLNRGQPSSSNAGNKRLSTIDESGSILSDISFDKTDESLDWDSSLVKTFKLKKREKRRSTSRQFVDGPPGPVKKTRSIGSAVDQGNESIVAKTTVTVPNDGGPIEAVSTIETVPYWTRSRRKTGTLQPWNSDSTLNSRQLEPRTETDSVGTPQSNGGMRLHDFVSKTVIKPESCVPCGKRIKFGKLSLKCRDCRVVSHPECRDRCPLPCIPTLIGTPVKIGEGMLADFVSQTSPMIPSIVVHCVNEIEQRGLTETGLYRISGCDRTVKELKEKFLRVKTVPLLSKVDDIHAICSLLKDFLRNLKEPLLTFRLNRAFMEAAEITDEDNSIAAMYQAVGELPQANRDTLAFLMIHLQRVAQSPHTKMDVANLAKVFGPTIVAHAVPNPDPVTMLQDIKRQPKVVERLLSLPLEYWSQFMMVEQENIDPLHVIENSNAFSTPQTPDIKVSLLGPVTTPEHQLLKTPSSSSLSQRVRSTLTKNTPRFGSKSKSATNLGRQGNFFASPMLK
Description: blockers of MgcRacGAP-driven Rac1 GTP hydrolysis – biochemical, ADP Hunter fluorescence, primary and confirmatory, confirmation (AID 624330). Format: functional.

The nature of test [8]: P. falciparum Dd2 growth inhibitors, dose response, SYBR Green, cherry-picked samples (AID 1159567). In kind it is functional, cell-based.

In general, EC50 refers to the concentration that produces a half-maximal response. The AC50 is the concentration giving half of the maximal activity seen. On to `CN1/C(=C\C(=O)C[n+]2ccc(C(=O)c3ccccc3)cc2)C(C)(C)c2ccccc21`, for which the EC50 in [1] is 3.12 µM (active); in test [2] it was > 150 µM (inactive). Also, the half-maximal activity concentration (AC50) with INS1 was 2.42 µM (active).
As to `COc1ccccc1Nc1nc(-c2sc(NC(=O)c3ccccc3)nc2C)cs1`, the values for the AC50 at Cytochrome P450 3A4 and on Cytochrome P450 2C19 were 15.8 µM (inconclusive) and 3.16 µM (inconclusive), respectively.
One may read the IC50 as the concentration needed to halve the response being measured. Turning to `Cc1cc(Nc2ccccc2C(=O)O)nc2nc3ccccc3c(=O)n12`, the IC50 in the test on H9c2 was 14.2 µM (active).
The term CC50 denotes the concentration at which the toxic effect on the cells reaches its halfway point. Turning to `Cc1cccc(C)c1NC(=O)c1c(C)nn(-c2ccccc2)c1Cl`, in [3], the CC50 was 42.5 µM (active).
Consider `CN(C(=O)CSc1nnc(-c2ccco2)o1)C1CCCCC1`, for which the EC50 in test [1] was 5.16 µM (active); in test [2], > 160 µM (inactive).
Turning to `Cc1cc(Nc2ccccc2)n(-c2ccc(C(=O)O)cc2)n1`, the concentration at half-maximal activity (AC50) in test [4] is 1.41 µM (active).
For `Cc1cc(-n2c(SCC(=O)Nc3ccc(F)c(F)c3)nc3nnc(C)c-3c2N)ccc1Cl`, the AC50 in the test on INS1 was 5.57 µM (active).
`Cc1ccc(C(=O)OCC(=O)Nc2sccc2C(N)=O)cc1NC(=O)c1ccco1`: the IC50 in the test with H9c2 is > 79 µM (inactive).
For `COC(=O)[C@H](Cc1ccccc1)NC(=O)N1CCN(c2ccc(F)cc2)CC1`, in test [4], the AC50 is > 100 µM (inactive).
As to `CCn1c(SCC(=O)Nc2cccc(C)c2)nc2ccccc2c1=O`, the CC50 in test [3] was > 50 µM (active).
Take `O=C(Nc1ccc(C(=O)N2CCCc3ccccc32)cc1)c1cccs1`: the CC50 in test [3] was 35.4 µM (active).
Consider `COc1ccc(N(C)S(=O)(=O)c2cccc(C(=O)Nc3nc(C)cs3)c2)cc1`, for which the half-maximal activity concentration (AC50) in test [4] was 1.2 µM (active).
Regarding `Nc1nc(Cc2ccccc2)nc(Cc2ccccc2)c1-c1ccccc1`, the AC50 on Cytochrome P450 3A4 was 3.16 µM (inconclusive); on Cytochrome P450 2D6, 3.16 µM (inconclusive); at Cytochrome P450 2C9, 3.16 µM (inconclusive); at Cytochrome P450 1A2 it was 1 µM (inconclusive); on Cytochrome P450 2C19, 6.31 µM (inconclusive).
As to `COC(=O)c1cc(C(=O)OCC(=O)N2c3ccccc3NC(=O)C2(C)C)cc([N+](=O)[O-])c1`, the half-inhibitory concentration (IC50) in the test on H9c2 is 10.8 µM (active).
As for `O=C1N=C(NO)S/C1=C\c1ccccc1-n1cccn1`, in test [4], the AC50 was 4.82 µM (active).
`COc1ccccc1NC(=O)c1c(NC(=O)CCC(=O)O)sc2c1CCCCC2`: the concentration at half-maximal activity (AC50) in test [4] is < 0.005 µM (active).
In the case of `CCOC(=O)c1cccc(NC(=O)CSc2nc3ccccc3c(=O)n2CCOC)c1`, the IC50 in the test on H9c2 is > 79 µM (inactive).
Turning to `CCCCC(NC(=O)Cc1c(C)c2cc3c(C)c(C)oc3c(C)c2oc1=O)C(=O)O` (centres undefined), the AC50 in test [4] was > 100 µM (inactive).
For the compound `CC[C@H](C)[C@@H](C(=O)NCCCCCCCCCCC(=O)N1CCN(C(=O)OC(C)(C)C)CC1)n1cc(CCCCCNC(=O)OC(C)(C)C)nn1`, the AC50 in the test with INS1 is 4.08 µM (active).
For `COc1cccc(C(=O)Nc2c(C(N)=O)oc3ccccc23)c1`, the IC50 in the test on H9c2 was > 79 µM (inactive).
For `Cc1onc(-c2ccccc2)c1C(=O)OCC(=O)Nc1ccc(C#N)cc1`, the CC50 in [3] is 8 µM (active).
Take `Cc1cc(SCC(=O)Nc2cccc(S(=O)(=O)NC3=NCCCCC3)c2)nc2ccccc12`: in [3], the CC50 was 40.6 µM (active).
In the case of `CC(=O)C1=C(C)NC(SCC(=O)c2cc(Cl)ccc2Cl)=C(C#N)C1c1ccco1` (centres undefined), in test [3], the 50% cytotoxic concentration (CC50) was 14.2 µM (active).
Regarding `N#Cc1ccc(NC(=O)CN2C(=O)NC3(CCCCCCC3)C2=O)cc1Cl`, the CC50 in test [3] was 30.3 µM (active).
The same measure, in the same setting: the same measure for `O=S(=O)(c1ccc(F)cc1)N1CCC(c2nc(O)c3nnn(Cc4ccc5c(c4)OCCO5)c3n2)CC1`: 19.6 µM (active).
On to `CCc1nn(CCCC(=O)NCc2ccc(C)cc2)c(=O)c2cc3occc3n12`, for which the EC50 in [1] is > 38 µM (not active); in test [2], > 160 µM (inconclusive).
For `O=C(Nc1cccs1)NC1CCCC1`, in test [4], the AC50 was 1.83 µM (active).
As for `O=C(CCCN1C(=O)c2cccc3cccc(c23)C1=O)N1CCN(c2ccc(F)cc2)CC1`, the CC50 in test [3] was 46.2 µM (active).
Take `COc1cccc(-c2cc3nc(-c4ccccc4)cc(N4CCC5(CC4)OCCO5)n3n2)c1`: the AC50 was 20 µM (inconclusive) at Cytochrome P450 3A4 and 2 µM (inconclusive) on Cytochrome P450 2C19. The results for the EC50 in test [5] and in test [6] were 1.82 µM (active) and > 30 µM (not active), respectively.
With `CCOc1ccc(S(=O)(=O)N(C)CCO)cc1-c1nc(O)c2c(n1)c(C(C)(C)C)nn2C`, in the test with H9c2, the IC50 was > 79 µM (inactive).
For `CCN(CC)c1ccc(NC(=O)C2=CCN(S(=O)(=O)c3ccc(F)cc3)CC2)c(C)c1`, in [4], the AC50 is 5.05 µM (active).
With `O=C(N(c1ccccc1)c1ccccc1)N(c1ccccc1)c1ccccc1`, the CC50 in test [3] was 17 µM (active).
Regarding `Cc1ccc2[nH]cc(CCNC(=O)c3cccs3)c2c1`, in test [4], the AC50 is 26.2 µM (active).
`O=C(COc1cccc2c1CCNC2=O)Nc1ccc(Cl)cc1`: in the test on H9c2, the IC50 was 11.6 µM (active).
With `FC(F)(F)c1nnc2ccc(N3CCCC3)nn12`, in the test with H9c2, the IC50 is 39.7 µM (inactive).
For the compound `N=C(NNS(=O)(=O)c1ccccc1)c1ccccn1`, the IC50 with H9c2 is 23.5 µM (active).
Regarding `COc1ccc(Cl)cc1NC(=O)CN(C)C(=O)Cc1nnc(O)c2ccccc12`, in the test on H9c2, the IC50 is > 79 µM (inactive).
Take `Oc1c(Br)cc(Br)cc1/C=N/c1ccc2c(c1)OCCO2`: the half-maximal inhibitory concentration (IC50) in the test with H9c2 is 17.6 µM (active); in test [7] it was 119 µM (active).
For `COc1ccc(/N=C/c2cc(Cl)ccc2O)cc1Cl`, in the test on H9c2, the IC50 was 17.5 µM (active).
Turning to `CC(C)(C)[S@+]([O-])N1Cc2cc(C(=O)N[C@H]3CCN(Cc4ccccc4)C3)nc(-c3cccc(-c4ccncc4)c3)c2[C@@H]1CCO`, the AC50 in [8] is 6.19 µM (active).
In the case of `O=C(C[n+]1ccccc1)N/N=C/c1cccs1`, the figures for the EC50 in [1] and in test [2] were > 38 µM (not active) and > 150 µM (inactive), respectively.
`CO[C@H]1CN(C)C(=O)c2cc(NC(=O)C3CC3)ccc2OC[C@H](C)N(Cc2cc(F)ccc2F)C[C@@H]1C`: the AC50 in [8] is 6.44 µM (active).
The same measure, in the same setting: the same measure for `CO[C@@H]1CN(C)C(=O)c2ccc(NC(=O)Nc3ccc(C(F)(F)F)cc3)cc2OC[C@@H](C)NC[C@@H]1C`: 4.23 µM (active); for `C[C@H](CO)N1C[C@H](C)[C@@H](CN(C)C(=O)[C@H](C)c2ccccc2)OCc2ccccc2-c2c(n(C)c3ccccc23)C1=O`: 4.07 µM (active); for `CN1c2ccc(C3=CCCCC3)cc2[C@H]2[C@H](CCN2C(=O)C2CC2)[C@@H]1CO`: 0.964 µM (active).
